According to US9884063B2, “Amido-substituted azole compounds” (Bayer Pharma Aktiengesellschaft, priority 2014, dated 2018):

What was measured:
[1] = test system: wildtype Wnt signaling cascade; test: HEK293 TOP Assay (Super TopFlash luciferase reporter, Wnt-3a stimulated); format: cell-based; conditions: Homo sapiens, HEK293, 16 h, HEK293 TOP reporter cell line, Wnt-3a at EC50, 16 hours incubation, compound dilution series 50 μM to 15 nM
Outline: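 Compounds (50 μM down to 15 nM, 3.16-fold steps, in CAFTY buffer pH 7.4, 2 mM Ca2+, 0.01% BSA) tested in parallel on TOP and FOP HEK293 reporter lines to define selective wildtype Wnt inhibition. Pathway driven by recombinant human Wnt-3a applied at 2500–5 ng/ml in two-fold dilutions.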

TNKS2 = biological target: T1, TNKS2 (Homo sapiens, UniProt Q9H2K2); test: Modified TNKS2 Assay 3 (BPS kit #80578, biotin-NAD+, 96 well); format: biochemical; conditions: human TNKS2, BPS kit #80578, 96 well
T1 sequence (Q9H2K2 1-1166): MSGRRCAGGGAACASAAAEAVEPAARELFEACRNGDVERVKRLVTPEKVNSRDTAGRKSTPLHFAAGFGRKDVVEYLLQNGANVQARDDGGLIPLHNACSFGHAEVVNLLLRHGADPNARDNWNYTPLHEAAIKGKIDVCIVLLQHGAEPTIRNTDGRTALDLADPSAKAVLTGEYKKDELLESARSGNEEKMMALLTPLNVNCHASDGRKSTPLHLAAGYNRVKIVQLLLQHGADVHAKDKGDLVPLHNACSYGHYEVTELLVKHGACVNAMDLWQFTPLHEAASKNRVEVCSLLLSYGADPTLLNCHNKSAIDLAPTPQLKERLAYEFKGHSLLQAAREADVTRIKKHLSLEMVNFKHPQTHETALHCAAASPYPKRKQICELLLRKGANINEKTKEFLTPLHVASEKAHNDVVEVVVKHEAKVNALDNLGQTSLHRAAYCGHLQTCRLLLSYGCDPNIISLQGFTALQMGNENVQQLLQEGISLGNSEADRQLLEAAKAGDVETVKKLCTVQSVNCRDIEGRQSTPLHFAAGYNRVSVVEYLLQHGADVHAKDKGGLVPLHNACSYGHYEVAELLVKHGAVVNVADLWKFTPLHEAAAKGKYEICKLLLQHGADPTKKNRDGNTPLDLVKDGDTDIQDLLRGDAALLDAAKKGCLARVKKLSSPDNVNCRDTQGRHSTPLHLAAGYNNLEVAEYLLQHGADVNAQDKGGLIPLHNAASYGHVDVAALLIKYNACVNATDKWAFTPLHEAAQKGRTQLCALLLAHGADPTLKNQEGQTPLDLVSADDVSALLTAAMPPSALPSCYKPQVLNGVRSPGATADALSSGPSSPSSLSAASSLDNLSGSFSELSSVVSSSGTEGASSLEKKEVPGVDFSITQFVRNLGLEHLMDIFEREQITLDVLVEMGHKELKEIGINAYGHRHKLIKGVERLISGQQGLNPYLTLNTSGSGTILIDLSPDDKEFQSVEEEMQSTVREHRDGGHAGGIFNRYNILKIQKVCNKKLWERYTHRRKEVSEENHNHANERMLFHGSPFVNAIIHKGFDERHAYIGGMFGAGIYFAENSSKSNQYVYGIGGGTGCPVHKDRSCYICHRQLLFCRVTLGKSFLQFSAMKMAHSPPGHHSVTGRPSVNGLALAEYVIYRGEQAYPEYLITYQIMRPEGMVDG
Outline: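 Commercial kit assay measuring TNKS2-catalysed incorporation of biotin-labelled NAD+ into a protein substrate, detected by streptavidin-HRP chemiluminescence. Run per manufacturer's protocol; IC50 is the concentration halving the normalised signal.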

Which results are given for O=C(Nc1ccc(NC(=O)c2[nH]cnc2C(=O)NCCN2CCCCC2)cn1)c1ccc(F)cc1Cl [Example 110, N^5-{6-[(2-chloro-4-fluorobenzoyl)amino]pyridin-3-yl}-N^4-[2-(piperidin-1-yl)ethyl]-1H-imidazole-4,5-dicarboxamide]?
IC50 [1]: 60 nM; IC50 (TNKS2): 4 nM
